# Target: T1, IDO-1 (Homo sapiens, UniProt P14902)
# T1 construct: expressed in transfected cells; host or cells: HEK293 (hIDO1-HEK293 recombinant cells)
# Experiment: IDO-1 activity by kynurenine levels in hIDO1-HEK293 recombinant cells
# Assay type: cell-based
# Settings: 10 uM, 24 hours
# Procedure: IDO-1 activity was measured indirectly using kynurenine levels using the following protocols. Briefly, hIDO1-HEK293 recombinant cells were plated overnight. The following day the cells were left untreated or treated with 10 uM of ID3, ID3-SA or LNP-ID3-SA for twenty-four (24) hours. The IDO-1 activity was measured by indirect measurement of kynurenine levels by analyzing absorption at 480 nm using IDO1 Cellular Activity QuickDetect™ kit (PBSBioscience, San Diego, CA).
# T1 sequence (P14902 whole entry): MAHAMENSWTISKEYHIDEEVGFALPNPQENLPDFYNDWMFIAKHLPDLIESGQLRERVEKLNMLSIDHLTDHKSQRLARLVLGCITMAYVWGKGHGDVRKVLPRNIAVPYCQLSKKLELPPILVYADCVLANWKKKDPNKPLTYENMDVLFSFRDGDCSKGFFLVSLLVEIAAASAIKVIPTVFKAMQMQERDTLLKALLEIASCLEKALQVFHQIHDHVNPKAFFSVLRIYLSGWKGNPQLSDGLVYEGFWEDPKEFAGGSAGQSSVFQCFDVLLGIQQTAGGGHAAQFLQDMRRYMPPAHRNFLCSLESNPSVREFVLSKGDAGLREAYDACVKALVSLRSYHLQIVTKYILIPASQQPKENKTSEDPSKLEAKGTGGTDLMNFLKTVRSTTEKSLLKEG
smiles,measurement,value
CCCCCCCCCCCCCCCCCC(=O)OCOC(=O)N(C(=O)[C@H](C)[C@H]1CC[C@@H](c2ccnc3ccc(F)cc32)CC1)c1ccc(Cl)cc1 [ID3-SA],"IDO-1 activity (kynurenine levels, absorption at 480 nm)",inhibited IDO-1 activity
